Test results taken from BindingDB's records for patent US9428501 (Astellas Pharma Inc, 2016).

Target: 5'-AMP-activated protein kinase catalytic subunit alpha-2 (Homo sapiens, UniProt P54646)
Experiment: Activation Assay
Conditions: 37 °C
Procedure: After the incubation, 20 μl of a 40% glyoxal solution (Nacalai Tesque) was added to each well, and then cells were fixed by leaving to stand at room temperature for 30 minutes. Thereafter, the supernatant was removed by centrifuging the plate, and then 0.1% Triton X-100-containing Phosphate-Buffered Saline (PBS) was added to each well by 20 followed by incubating at room temperature for 10 minutes. […] The blocking solution was removed by centrifuging, with the exception of the blocking solution by centrifugation, and then a blocking solution which was diluted such that the amount of phosphorylation antibody (manufactured by Cell Signaling Technology, Inc) of ACC Ser79 as a primary antibody is 1/500 was added to each well by 10 followed by leaving to stand at 4° C. overnight. The following day, the reaction liquid was removed by centrifuging the plate, and then 0.05% Tween-20-containing Tris-Buffered Saline (TBS) (manufacture by Thermo Scientific Inc.; used in 1× in which 20×TBS Tween-20 was diluted with ion-exchange water) was added to each well by 25 followed by washing each well by centrifugal removal. The washing of each well was repeated for a total of 3 times. […]

5'-AMP-activated protein kinase catalytic subunit alpha-2, sequence (P54646 whole entry): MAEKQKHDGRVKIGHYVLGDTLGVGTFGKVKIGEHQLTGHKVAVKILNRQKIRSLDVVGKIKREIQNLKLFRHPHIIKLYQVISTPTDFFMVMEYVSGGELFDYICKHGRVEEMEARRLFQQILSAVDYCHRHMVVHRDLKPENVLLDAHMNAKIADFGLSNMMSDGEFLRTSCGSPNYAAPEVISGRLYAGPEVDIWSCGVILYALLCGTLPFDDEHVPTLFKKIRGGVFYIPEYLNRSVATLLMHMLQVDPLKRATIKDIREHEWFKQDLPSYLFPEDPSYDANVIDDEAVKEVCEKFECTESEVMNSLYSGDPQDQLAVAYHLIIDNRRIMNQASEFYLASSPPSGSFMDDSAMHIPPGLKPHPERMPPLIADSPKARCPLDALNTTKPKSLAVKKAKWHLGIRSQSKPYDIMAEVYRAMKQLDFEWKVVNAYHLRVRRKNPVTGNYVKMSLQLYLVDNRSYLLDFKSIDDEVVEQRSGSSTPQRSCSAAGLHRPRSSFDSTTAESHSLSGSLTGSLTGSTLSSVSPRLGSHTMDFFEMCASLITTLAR

EC50: 1.8 nM
SMILES: CCOc1cnc(CN2CCC(c3ccc4cc(C(=O)N5CCN(Cc6ccc(C#N)cc6)CC5)n(C)c4c3)CC2)cn1 [US9428501, 69]
